In patent US7842808B2, “Anti-migraine spirocycles” (Bristol-Myers Squibb Company, priority 2002, dated 2010):

Key:
[1] = biological target: T1, human CGRP receptor (SK-N-MC cells) (Homo sapiens, UniProt O60894+Q16602); experiment: Schild analysis of CGRP stimulated cAMP production; assay type: cell-based; settings: Schild plot slope
T1 construct: SK-N-MC cells that endogenously express the human CGRP receptor; endogenous in cells; host or cells: SK-N-MC cells
Protocol: Functional Antagonism. Antagonism of the compounds of invention was determined by measuring the formation of cyclic AMP (adenosine 3′5′-cyclic monophosphate) in SK-N-MC cells that endogenously express the human CGRP receptor. CGRP receptor complex is coupled with Gs protein and CGRP binding to this complex leads to the cyclic AMP production via Gs—dependent activation of an adenylate cyclase (Juaneda C et al., TiPS, 2000; 21:432-438; incorporated by reference herein). Consequently, CGRP receptor antagonists inhibit CGRP-induced cyclic AMP formation in SK-N-MC cells (Doods H et al., Br J Pharmacol, 2000; 129(3):420-423); incorporated by reference herein). For cyclic AMP measurements SK-N-MC cells were incubated with 0.3 nM CGRP alone or in the presence of various concentrations of the compounds of invention for 30 min at room temperature. Compounds of invention were pre-incubated with SK-N-MC cells for 15 min before the addition of CGRP to allow receptor occupancy (Edvinsson et al., Eur J Pharmacol, 2001, 415:39-44; incorporated by reference herein). Cyclic AMP was extracted using the lysis reagent and its concentration was determined by radioimmunoassay using RPA559 cAMP SPA Direct Screening Assay Kit (Amersham Pharmacia Biotech). IC50 values were calculated using Excel fit.
Schild Analysis. Schild analysis can be used to characterize the nature of antagonism of the compounds of invention. The dose response of CGRP stimulated cAMP production was generated either with CGRP alone, or in the presence of various concentrations of compounds of invention. The antagonist dose is plotted as X against the dose ratio (defined as IC50 of agonist with the presence of the compounds divided by the IC50 of the agonist alone) minus 1 as Y. Linear regression was then performed with both X and Y axis log-transformed. […] Kb is the dissociation constant of the antagonist.

[2] = system: human cerebral vessels (CGRP-induced dilation); experiment: Ex Vivo Human Cerebral Artery Assay, reversal of CGRP-induced relaxation; settings: reversal of 1 nM hCGRP-induced relaxation, vessels pre-contracted with 10 mM KCl
Procedure, shortened: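 Autopsy human cerebral artery rings (4-5 mm) in Krebs buffer, 37 °C, pH 7.4, carbogen; primed with 100 mM KCl, pre-contracted with 10 mM KCl and fully dilated with 1 nM hCGRP. Antagonists added cumulatively in half-log steps; tension recorded as % reversal of CGRP relaxation, EC50 by four-parameter logistic fit per vessel.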

[3] = system: CGRP-induced increase in laser Doppler facial blood flow; experiment: Non-terminal laser Doppler facial blood flow model in non-human primate; assay type: in vivo, common marmoset (Callithrix jacchus); settings: for % Inhibition of CGRP-induced increase in laser Doppler facial blood flow: iv, CGRP 10 μg/kg
Excerpt: Overview. […] Non-human primates (e.g., marmosets) are the only animals known to have human-like CGRP receptor pharmacology conferred by the presence of the specific amino acid residue (Trp74) in their RAMP1 sequence which is responsible for the phenotype of the human receptor (Mallee et al. J Biol Chem 2002 277:14294). […] Peptide and small-molecule CGRP-receptor antagonists were used to validate the non-human primate model.
Animals. Adult male and female common marmosets (Callithrix jacchus) purchased from Harlan and weighing 350-550 g served as subjects. Other mammals endogenously expressing RAMP1 having Trp 74 or transgenic mammals with humanized RAMP1 having Trp 74 can also be employed in A compound described herein.
Anesthesia & Surgical Preparation. Animals are anesthetized by isoflurane inhalation in an induction chamber (4-5% rapid induction, maintained with 1-2.5%; Solomon et al., 1999). Anesthesia is maintained by delivering a constant supply of air:oxygen (50:50) and isoflurane via face mask, or by intubation and ventilation (with blood gas monitoring). Body temperature is maintained at 38±0.5° C. by placement on an automated temperature controlled surface with rectal probe. A small area of fur (approx. 1.5 cm square) is removed from one or both sides of the face by application of a depilatory cream and/or shaving. Surgical areas are clipped and prepared with betadine. An i.v. line is placed in any accessible vein for the administration of test compounds and CGRP-receptor agonist and, if needed, withdrawal of blood samples (max 2.5 ml, 10%) for blood gas monitoring and content analysis. A solution of 5% dextrose is administered i.v. in order to maintain blood sugar levels. Anesthesia depth is monitored by measuring blood pressure and heart rate using a non-invasive arm cuff method and a pulse oximeter, respectively. Guanethidine 5-10 mg/kg i.v., supplemented with 5 mg/kg i.v. as needed, may be given to stabilize the peak flux in facial blood flow seen with repeated stimulation-induced changes in blood flow (Escott et al., 1999; incorporated by reference herein). Microvascular blood flow is monitored by attaching a self adhesive laser Doppler flow probe to the facial skin.
Compound Administration Test compounds may be administered i.v. (0.01-5 ml/kg), i.m. (0.01-0.5 ml/kg), s.c. (0.01-5 ml/kg) or p.o. (0.1-10 ml/kg) (Diehl et al., 2001; incorporated by reference herein). CGRP-receptor agonists may be delivered i.v. (0.01-5 ml/kg), i.d. (10-100 μl/site) or s.c. (10-100 μl/site).

T1 sequence (Q16602 23-461): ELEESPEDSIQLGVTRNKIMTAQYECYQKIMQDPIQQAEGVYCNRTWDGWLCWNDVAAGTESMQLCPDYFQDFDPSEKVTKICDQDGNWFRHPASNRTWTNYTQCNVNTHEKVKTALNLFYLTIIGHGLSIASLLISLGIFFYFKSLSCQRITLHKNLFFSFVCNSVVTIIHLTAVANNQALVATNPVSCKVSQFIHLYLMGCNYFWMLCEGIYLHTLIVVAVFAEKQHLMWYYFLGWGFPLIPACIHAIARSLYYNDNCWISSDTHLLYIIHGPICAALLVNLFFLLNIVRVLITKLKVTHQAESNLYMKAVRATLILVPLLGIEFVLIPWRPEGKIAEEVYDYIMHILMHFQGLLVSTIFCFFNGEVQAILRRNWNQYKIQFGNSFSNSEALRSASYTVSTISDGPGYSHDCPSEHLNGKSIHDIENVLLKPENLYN
T1 sequence (O60894 27-148): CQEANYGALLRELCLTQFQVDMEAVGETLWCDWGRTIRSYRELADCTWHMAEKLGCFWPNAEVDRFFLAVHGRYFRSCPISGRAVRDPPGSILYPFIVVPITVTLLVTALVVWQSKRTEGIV

slope [1]: 0.94 | EC50 [2]: < 10 nM
Structure (SMILES): O=C(N[C@H](Cc1ccc2[nH]ncc2c1)C(=O)N1CCC(N2CCCCC2)CC1)N1CCC(N2Cc3ccccc3NC2=O)CC1 [Example 2, (R)-4-(2-Oxo-1,4-dihydro-2H-quinazolin-3-yl)-piperidine-1-carboxylic acid[2-[1,4′]bipiperidinyl-1′-yl-1-(1H-indazol-5-ylmethyl)-2-oxo-ethyl]-amide]
% Inhibition of CGRP-induced increase in laser Doppler facial blood flow ([3]; 0.01 mg/kg): W (W≦25%) | % Inhibition of CGRP-induced increase in laser Doppler facial blood flow ([3]; 0.03 mg/kg): X (25%<X≦50%) | % Inhibition of CGRP-induced increase in laser Doppler facial blood flow ([3]; 0.1 mg/kg): X (25%<X≦50%) | % Inhibition of CGRP-induced increase in laser Doppler facial blood flow ([3]; 0.3 mg/kg): Y (50%<Y≦75%) | % Inhibition of CGRP-induced increase in laser Doppler facial blood flow ([3]; 1 mg/kg): Z (Z>75%) | inhibition of CGRP-induced increase in laser Doppler facial blood flow (in words) ([3]; delivered prior to hαCGRP (pre-treatment)): dose-dependently inhibits
